Patent US11458091B2, “Compositions and methods for the treatment of opioid overdose” (Opiant Pharmaceuticals, Inc., priority 2016, dated 2022)
Where two headings read alike, the source gives them in different places.

Columns and labels:
[1] = design: increase of total exposure (AUC): reference not given here; settings: intranasal formulation with […] Intravail, cited from earlier work
[2] = Intranasal naltrexone with Intravail, AUC (data not presented); format: in vivo; settings: effect of Intravail
From the text: This important difference could not be predicted based on structure of the opioid antagonists, or the function of these moieties as opioid antagonists.

[3] = in vivo; cited from earlier work
[4] = cited from earlier work
[5] = clinical; settings: human, in vivo; for concentration at 0 h: Hour 0.0; for concentration at 36 h: Hour 36.0; for concentration at 48 h: Hour 48.0; for concentration at 60 h: Hour 60.0; for concentration at 72 h: Hour 72.0; for concentration at 0.08 h: Hour 0.08; for concentration at 2 h: Hour 2.0; for concentration at 3 h: Hour 3.0; for Tmax: median; for concentration at 0.5 h: Hour 0.50; for concentration at 1 h: Hour 1.0; for concentration at 4 h: Hour 4.0
[6] = for AUCextrap / Cmax/D / Lambda z: mean
[7] = 1.5 mg, Mean plasma concentration of nalmefene, 1.5 mg IM
[8] = 1.5 mg, Mean plasma concentration of nalmefene, 1.5 mg IN
[9] = 3 mg, Mean plasma concentration of nalmefene, 3 mg + […] Intravail IN
[10] = 3 mg, Mean plasma concentration of nalmefene, 3 mg IN
[11] = 3 mg plus […] Intravail IN, N = 14

CNS(=O)(=O)Cc1ccc2[nH]cc(CCN(C)C)c2c1 [sumatriptan]
increase of maximum plasma concentration ([1]; in comparison to Imitrex nasal spray): almost four-fold | Tmax [1]: 8 to 10 min | increase of total exposure (AUC) [1]: 32%

O=C1CC[C@@]2(O)[C@H]3Cc4ccc(O)c5c4[C@@]2(CCN3CC2CC2)[C@H]1O5 [naltrexone, 17-(cyclopropylmethyl)-4,5α-epoxy-3,14-dihydroxymorphinan-6-one]
AUC [2]: increased significantly

C=C1CC[C@@]2(O)[C@H]3Cc4ccc(O)c5c4[C@@]2(CCN3CC2CC2)[C@H]1O5 [Nalmefene, 17-cyclopropylmethyl-4,5α-epoxy-6-methylenemorphinan-3,14-diol]
incidence of common adverse reactions (nausea, vomiting, tachycardia, hypertension, postoperative pain, fever, dizziness, headache, chills, hypotension, vasodilation) [3]: greater than 1% | potency versus naloxone ([4]; milligram-per-milligram basis): equipotent on a milligram-per-milligram basis | clearance ([4]; versus naloxone): slower than naloxone | half-life ([5]; 1.5 mg, 1.5 mg IN, mean, N = 14): 6.74 h | concentration at 0 h [5, 7]: 0 ng/mL | concentration at 36 h [5, 7]: 0 ng/mL | concentration at 48 h [5, 7]: 0 ng/mL | concentration at 60 h [5, 7]: 0 ng/mL | concentration at 72 h [5, 7]: 0 ng/mL | concentration at 0 h [5, 8]: 0 ng/mL | concentration at 0.08 h [5, 8]: 0 ng/mL | concentration at […] ([5]; 1.5 mg, Mean plasma concentration of nalmefene, 1.5 mg IN, Hour 0.75): 0.691 ng/mL | concentration at 2 h [5, 8]: 0.872 ng/mL | concentration at 3 h [5, 8]: 0.712 ng/mL | concentration at 12 h ([5]; 1.5 mg, Mean plasma concentration of nalmefene, 1.5 mg IN, Hour 12.0): 0.141 ng/mL | concentration at 30 h ([5]; 1.5 mg, Mean plasma concentration of nalmefene, 1.5 mg IN, Hour 30.0): 0 ng/mL | concentration at 36 h [5, 8]: 0 ng/mL | concentration at 48 h [5, 8]: 0 ng/mL | concentration at 60 h [5, 8]: 0 ng/mL | concentration at 72 h [5, 8]: 0 ng/mL | Tmax ([5]; 1.5 mg, 1.5 mg IN, N = 14): 2 h | AUC(0-t) ([5]; 3 mg, AUC0-t, 3 mg plus […] Intravail IN, mean, N = 14): 17.3 ng·h/mL | half-life ([5]; 3 mg, 3 mg IN, mean, N = 14): 7.84 h | half-life ([5]; 3 mg, 3 mg plus […] Intravail IN, mean, N = 14): 6.78 h | concentration at 0 h [5, 9]: 0 ng/mL | concentration at 0.08 h [5, 9]: 0.931 ng/mL | concentration at […] ([5]; 3 mg, Mean plasma concentration of nalmefene, 3 mg + […] Intravail IN, Hour 0.17): 3.69 ng/mL | concentration at […] ([5]; 3 mg, Mean plasma concentration of nalmefene, 3 mg + […] Intravail IN, Hour 0.25): 4.38 ng/mL | concentration at […] ([5]; 3 mg, Mean plasma concentration of nalmefene, 3 mg + […] Intravail IN, Hour 0.33): 3.53 ng/mL | concentration at 0.5 h [5, 9]: 3.2 ng/mL | concentration at 1 h [5, 9]: 2.54 ng/mL | concentration at 2 h [5, 9]: 1.99 ng/mL | concentration at 3 h [5, 9]: 1.57 ng/mL | concentration at 4 h [5, 9]: 1.32 ng/mL | concentration at 6 h ([5]; 3 mg, Mean plasma concentration of nalmefene, 3 mg + […] Intravail IN, Hour 6.0): 0.91 ng/mL | concentration at 36 h [5, 9]: 0.0149 ng/mL | concentration at 48 h [5, 9]: 0 ng/mL | concentration at 60 h [5, 9]: 0 ng/mL | concentration at 72 h [5, 9]: 0 ng/mL | concentration at 0 h [5, 10]: 0 ng/mL | concentration at 0.08 h [5, 10]: 0 ng/mL | concentration at […] ([5]; 3 mg, Mean plasma concentration of nalmefene, 3 mg IN, Hour 0.25): 0.392 ng/mL | concentration at 0.5 h [5, 10]: 1.01 ng/mL | concentration at […] ([5]; 3 mg, Mean plasma concentration of nalmefene, 3 mg IN, Hour 0.75): 1.4 ng/mL | concentration at 1 h [5, 10]: 1.68 ng/mL | concentration at 3 h [5, 10]: 1.53 ng/mL | concentration at 4 h [5, 10]: 1.22 ng/mL | concentration at 24 h ([5]; 3 mg, Mean plasma concentration of nalmefene, 3 mg IN, Hour 24.0): 0.125 ng/mL | concentration at 48 h [5, 10]: 0 ng/mL | concentration at 60 h [5, 10]: 0 ng/mL | concentration at 72 h [5, 10]: 0 ng/mL | Tmax ([5]; 3 mg, 3 mg IN, N = 14): 2 h | Mean plasma concentration of nalmefene ([6]; 1.5 mg IM, Hour 0.08): 0.457 ng/mL | Mean plasma concentration of nalmefene ([6]; 1.5 mg IM, Hour 0.17): 1.01 ng/mL | Mean plasma concentration of nalmefene ([6]; 1.5 mg IM, Hour 0.25): 1.43 ng/mL | Mean plasma concentration of nalmefene ([6]; 1.5 mg IM, Hour 0.33): 1.33 ng/mL | Mean plasma concentration of nalmefene ([6]; 1.5 mg IM, Hour 0.50): 1.19 ng/mL | Mean plasma concentration of nalmefene ([6]; 1.5 mg IM, Hour 0.75): 1.14 ng/mL | Mean plasma concentration of nalmefene ([6]; 1.5 mg IM, Hour 1.0): 1.08 ng/mL | Mean plasma concentration of nalmefene ([6]; 1.5 mg IM, Hour 2.0): 1.03 ng/mL | Mean plasma concentration of nalmefene ([6]; 1.5 mg IM, Hour 3.0): 0.878 ng/mL | Mean plasma concentration of nalmefene ([6]; 1.5 mg IM, Hour 4.0): 0.798 ng/mL | Mean plasma concentration of nalmefene ([6]; 1.5 mg IM, Hour 6.0): 0.688 ng/mL | Mean plasma concentration of nalmefene ([6]; 1.5 mg IM, Hour 8.0): 0.603 ng/mL | Mean plasma concentration of nalmefene ([6]; 1.5 mg IM, Hour 12.0): 0.470 ng/mL | Mean plasma concentration of nalmefene ([6]; 1.5 mg IM, Hour 16.0): 0.298 ng/mL | Mean plasma concentration of nalmefene ([6]; 1.5 mg IM, Hour 24.0): 0.128 ng/mL | Mean plasma concentration of nalmefene ([6]; 1.5 mg IM, Hour 30.0): 0.0740 ng/mL | AUCextrap ([6]; 1.5 mg IM, N = 13): 22.6% | Cmax/D ([6]; 1.5 mg IM, N = 13): 1.12 ng/mL/mg | Lambda z ([6]; 1.5 mg IM, N = 13): 0.094 h⁻¹ | AUCextrap ([6]; 1.5 mg IN, N = 14): 30.6% | Cmax/D ([6]; 1.5 mg IN, N = 14): 0.646 ng/mL/mg | Lambda z ([6]; 1.5 mg IN, N = 14): 0.131 h⁻¹ | AUCextrap ([6]; 3 mg IN, N = 14): 17.9% | Cmax/D ([6]; 3 mg IN, N = 14): 0.731 ng/mL/mg | Lambda z ([6]; 3 mg IN, N = 14): 0.101 h⁻¹ | AUCextrap [6, 11]: 14.6% | Cmax/D [6, 11]: 1.65 ng/mL/mg | Lambda z [6, 11]: 0.117 h⁻¹
